A value given as a limit tells only on which side of the number the result lay.

The nature of data set [1]: In vivo pharmacokinetics after topical application to dorsal skin. The note with it: male, Sprague-Dawley, rat, plasma, both hydrogel groups, rats, topical 25 mg/kg. The method, then:
In vivo pharmacokinetic study of MTK-loaded nanocrystal preparation was carried out in the healthy rats, after approval from Institutional Animal Care and Use Committee (IACUC) of Dankook University (Cheonan, Korea) (DKU-19-032, 8th October 2019). Six-week-old male Sprague-Dawley rats (SD rats, 250 ± 20 g) obtained from Samtako (Kyungki-do, Korea) were acclimated for at least 3 days, with free access to tap water and standardized chow. The rats were then divided into two groups (n = 6 per each group) and the hair on the dorsal region was removed by hair clippers without damaging the skin, prior to topical application. […] During the experimental period (24 h), individual rats were monitored for their changes in skin and fur, behavior pattern, morbidity, and mortality. […] The drug concentration in the plasma was determined by the high-performance liquid chromatography and tandem mass spectrometry (LC–MS/MS) method described below.
Briefly, 20 μL of thawed rat plasma was mixed with 500 μL of the extraction solution (25% (v/v) of dichloromethane and 75% (v/v) of ethyl acetate), including zafirlukast (the internal standard, IS, 60 ng/mL) and vortexed for 60 s. […] Then, the residue was reconstituted with 100 μL of methanol and the final solution was analyzed through the LC-MS/MS system, composed of Nexera X2 UHPLC and LCMS-8050 mass spectrometer (Shimadzu, Tokyo, Japan). […]

The format of data set [2] is in vivo. The note with it: rats, 25 mg/kg topical, 24 h monitoring. As for the experimental part: In vivo pharmacokinetic study of MTK-loaded nanocrystal preparation was carried out in the healthy rats, after approval from Institutional Animal Care and Use Committee (IACUC) of Dankook University (Cheonan, Korea) (DKU-19-032, 8th October 2019). Six-week-old male Sprague-Dawley rats (SD rats, 250 ± 20 g) obtained from Samtako (Kyungki-do, Korea) were acclimated for at least 3 days, with free access to tap water and standardized chow. The rats were then divided into two groups (n = 6 per each group) and the hair on the dorsal region was removed by hair clippers without damaging the skin, prior to topical application. […] To avoid the drying of the nanocrystal or conventional hydrogels, a thin film made from polyurethane and acrylamide (Tegaderm®, 10 × 12 cm) was attached onto the application site. At predetermined time intervals (0, 0.5, 1, 2, 3, 4, 5, 8, 12, and 24 h), the blood samples (about 0.2 mL) were withdrawn from the submandibular vein using 28 G heparinized syringe. At 6 h post-administration, rats were allowed to freely access to water and standardized chow. During the experimental period (24 h), individual rats were monitored for their changes in skin and fur, behavior pattern, morbidity, and mortality. […] The drug concentration in the plasma was determined by the high-performance liquid chromatography and tandem mass spectrometry (LC–MS/MS) method described below.

On the set-up of data set [3]: method as in ref 11 (Al Omari et al. 2007). The note with it: UV exposure for 15 min; ref 11 (Al Omari et al. 2007); cited from earlier work.
The conditions of data set [4]: oral, rats and mice, 12 months; cited from earlier work.
Details of data set [5]: method as in ref 25 (Lai et al.). The note with it: photo-stability; ref 25 (Lai et al.); cited from earlier work.

As for `CC(C)(O)c1ccccc1CC[C@@H](SCC1(CC(=O)O)CC1)c1cccc(/C=C/c2ccc3ccc(Cl)cc3n2)c1` [MTK, Montelukast], the concentration at 5 h in data set [1] (5 h post-dosing) was in the range of 2 to 6 ng/mL. In addition, in data set [1] (12 h post-dosing, read-out: drug concentration in the plasma), the concentration at 12 h is less than 1 ng/mL. Further, in data set [2], the “adverse effects following single topical administration” value is “no marked adverse effects”. Also, in data set [3], the “drug content in the methanolic solution” value was 70%. Further, in data set [4], the no-observed-adverse-effect level (NOAEL) – broadly, the highest tested level that showed no adverse finding – is reported as 50 mg/kg.
For `CC1=C(/C=C/C(C)=C/C=C/C(C)=C/C(=O)O)C(C)(C)CCC1` [tretinoin], the “half-life with nanosuspension as compared to drug methanolic solution” value in data set [5] is listed as 7.5 fold.

The values are drawn from paper PMC7022715 (Pharmaceutics, 2019).
